What was measured:
VEGFR-2 = system: VEGFR-2; design: method as in PMID 30641320; settings: Figure 2; cited from earlier work
EGFR = EGFR (Homo sapiens, UniProt P00533); test: EGFR kinase assay (PGT-coated 96-well plates); type: biochemical; settings: read-out: IC50 (nM) ± SEM EGFR
Method: (§1) The EGFR kinase assay was carried out in 96-well plates coated with PGT (poly l-glutamic acid l-tyrosine, 4:1, Sigma Aldrich, St. Louis, MO) as previously described. IC50 values were calculated using GraphPad Prism 5. Each experiment was carried out at least three times. The VEGFR-2 kinase assay was carried out in 96-well streptavidin coated plate using recombinant human VEGFR-2/KDR ELISA kit according to manufacturer’s instructions.

[1] = target: T1, recombinant human VEGFR-2/KDR (Homo sapiens, UniProt P35968); test: VEGFR-2 kinase assay (VEGFR-2/KDR ELISA kit); type: biochemical; settings: read-out: IC50 (nM) ± SEM VEGFR-2
T1 construct: purchased
Method: as §1

[2] = system: BT-549 breast cancer cells; test: Anti-proliferative MTT assay; type: cell-based; settings: Homo sapiens, 24 h, read-out: % Growth inhibition ± SEM BT-549
Method: (§2) To evaluate the anti-proliferative activity of the synthesised thiazolyl-pyrazoline derivatives (7a–7d, 10a–10d, and 13a–13f), a preliminary in vitro one dose (10 µM) anticancer assay was performed. Nine cell lines derived from five tumour subpanels were examined; leukaemia (K562 and KG-1a), breast (MCF-7, BT-549 and HCC70), lung (A549 and H441), colon (HCT116) and liver (HepG2) cancer cell lines. The compounds were added at a single concentration (10 µM) and the cultures were incubated for 24 h, then the per cent growth inhibition (%GI) was calculated.
(§3) Human leukaemia (K562 and KG-1a), breast (MCF-7, BT-549 and HCC70), lung (A549, H441, NCI-H1650 and NCI-H1975), colon (HCT116), liver (HepG2) cancer cell lines and WI-38 human lung fibroblast cell line were obtained from the American Type Culture Collection (ATCC; Manassas, VA) and were cultured in their suitable media containing 10% foetal bovine serum (FBS; Sigma-Aldrich) in a humidified atmosphere with 5% CO2 at 37 °C. Gefitinib and vandetanib were purchased from Sigma-Aldrich. All chemicals used in this study were analytical or cell-culture grade.
(§4) Cytotoxicity was measured using the MTT assay. Human leukaemia (K562 and KG-1a), breast (MCF-7, BT-549 and HCC70), lung (A549, H441, NCI-H1650 and NCI-H1975), colon (HCT116), liver (HepG2) cancer cell lines and WI-38 human lung fibroblast cell line were plated at a density of 1 × 10^4 cells per well in 96-well plates overnight and then treated with the compounds. After 24 h treatment, 20 μL of MTT solution (2 mg/mL in phosphate-buffered saline [PBS]) was added to each well and the cells were cultured for another 4 h at 37 °C. The medium was aspirated and 150 μL DMSO was added to solubilise MTT formazan crystals. The plates were then shaken, and the optical density was determined at 570 nm using an ELISA plate reader (Model 550, Bio-Rad, Hercules, CA). At least three independent experiments were performed. The IC50 values were calculated using GraphPad Prism 5 (Version 5.01, GraphPad Software, San Diego, CA).

[3] = system: HCC70 breast cancer cells; test: Anti-proliferative MTT assay; type: cell-based; settings: Homo sapiens, 24 h, read-out: % Growth inhibition ± SEM HCC70
Method: as §2, §3, §4

[4] = system: HCT116 colon cancer cells; test: Anti-proliferative MTT assay; type: cell-based; settings: Homo sapiens, HCT-116, 24 h, read-out: % Growth inhibition ± SEM HCT116
Method: as §2, §3, §4

HepG2 liver cancer cells = test: Anti-proliferative MTT assay; type: cell-based; settings: Homo sapiens, 24 h, read-out: % Growth inhibition ± SEM HepG2
Method: as §2, §3, §4

K562 leukaemia cells = test: Anti-proliferative MTT assay; type: cell-based; settings: Homo sapiens, 24 h, read-out: % Growth inhibition ± SEM K562
Method: as §2, §3, §4

KG-1a leukaemia cells = test: Anti-proliferative MTT assay; type: cell-based; settings: Homo sapiens, 24 h, read-out: % Growth inhibition ± SEM KG-1a
Method: as §2, §3, §4

[5] = system: MCF-7 breast cancer cells; test: Anti-proliferative MTT assay; type: cell-based; settings: Homo sapiens, MCF7, 24 h, read-out: % Growth inhibition ± SEM MCF-7
Method: as §2, §3, §4

[6] = system: WI-38 human lung fibroblast cells; test: MTT cytotoxicity assay on normal cells; type: cell-based; settings: Homo sapiens, WI-38; normal lung fibroblasts, MTT, 24 h, n = 3; read-out: IC50 (µM) ± SEM WI-38
Method: All chemicals used in this study were analytical or cell-culture grade.
Cytotoxicity was measured using the MTT assay. […] The medium was aspirated and 150 μL DMSO was added to solubilise MTT formazan crystals. The plates were then shaken, and the optical density was determined at 570 nm using an ELISA plate reader (Model 550, Bio-Rad, Hercules, CA). At least three independent experiments were performed.

A549 lung cancer cells = test: Anti-proliferative MTT assay; settings: Homo sapiens, A549, 24 h; for inhibition at 10 µM: read-out: % Growth inhibition ± SEM A549; for IC50: read-out: IC50 (µM) ± SEM A549
H441 lung cancer cells = test: Anti-proliferative MTT assay; settings: Homo sapiens, NCI-H441, 24 h; for inhibition at 10 µM: read-out: % Growth inhibition ± SEM H441; for IC50: read-out: IC50 (µM) ± SEM H441, MTT, 24 h, n = 3
A549 cells = test: Cell cycle analysis by flow cytometry (7AAD); type: cell-based, human; settings: A549, 20 µM, 24 h
Method: Figure 6. […] (A) Representative cell cycle distribution data are shown by flow cytometric analysis upon incubation with 0 (control), 2.5 or 5 μM of 10b or 10d or with 0 (control), 5 or 20 μM of gefitinib for 24 h. (B) Quantification of cell cycle distribution upon 24 h incubation with 10b or 10d.
DNA content was measured using 7-aminoactinmycin D (7AAD) (Biotium, Inc., Hayward, CA) staining and is commonly used for cell cycle phase analysis as previously described. Apoptosis was evaluated using the annexin V/propidium iodide (PI) staining kit (BioLegend, San Diego, CA) according to the manufacturer’s instructions and as previously described.

Chain of EGFR (P00533 25-1210): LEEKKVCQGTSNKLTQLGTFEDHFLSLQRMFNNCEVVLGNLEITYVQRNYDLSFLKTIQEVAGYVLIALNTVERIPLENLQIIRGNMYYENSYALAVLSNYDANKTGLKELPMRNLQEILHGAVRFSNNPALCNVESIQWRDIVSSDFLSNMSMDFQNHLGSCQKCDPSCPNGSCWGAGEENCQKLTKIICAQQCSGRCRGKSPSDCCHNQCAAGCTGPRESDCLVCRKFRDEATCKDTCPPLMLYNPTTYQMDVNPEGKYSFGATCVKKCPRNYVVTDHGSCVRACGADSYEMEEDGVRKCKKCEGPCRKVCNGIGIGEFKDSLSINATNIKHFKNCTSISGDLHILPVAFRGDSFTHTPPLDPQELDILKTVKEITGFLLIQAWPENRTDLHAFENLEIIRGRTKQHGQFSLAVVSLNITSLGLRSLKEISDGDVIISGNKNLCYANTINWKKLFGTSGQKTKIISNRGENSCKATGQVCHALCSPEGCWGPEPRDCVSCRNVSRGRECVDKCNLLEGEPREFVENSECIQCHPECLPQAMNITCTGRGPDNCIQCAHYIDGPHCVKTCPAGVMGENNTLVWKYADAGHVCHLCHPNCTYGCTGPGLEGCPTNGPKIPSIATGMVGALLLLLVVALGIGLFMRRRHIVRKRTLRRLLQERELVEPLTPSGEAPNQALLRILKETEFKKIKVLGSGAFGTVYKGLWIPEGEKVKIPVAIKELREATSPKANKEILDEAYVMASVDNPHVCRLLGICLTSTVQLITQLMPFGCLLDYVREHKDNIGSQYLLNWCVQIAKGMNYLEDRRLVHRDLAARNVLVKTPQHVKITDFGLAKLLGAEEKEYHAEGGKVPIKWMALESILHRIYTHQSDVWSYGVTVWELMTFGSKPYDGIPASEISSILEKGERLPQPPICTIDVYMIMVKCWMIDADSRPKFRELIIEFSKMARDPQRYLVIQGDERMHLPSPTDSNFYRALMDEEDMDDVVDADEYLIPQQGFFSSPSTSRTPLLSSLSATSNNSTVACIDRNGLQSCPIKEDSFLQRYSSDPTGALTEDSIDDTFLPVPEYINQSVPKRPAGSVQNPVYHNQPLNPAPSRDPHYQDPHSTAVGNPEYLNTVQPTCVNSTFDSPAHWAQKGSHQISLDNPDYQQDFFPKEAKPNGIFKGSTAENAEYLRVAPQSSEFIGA
T1 sequence (P35968 20-1356): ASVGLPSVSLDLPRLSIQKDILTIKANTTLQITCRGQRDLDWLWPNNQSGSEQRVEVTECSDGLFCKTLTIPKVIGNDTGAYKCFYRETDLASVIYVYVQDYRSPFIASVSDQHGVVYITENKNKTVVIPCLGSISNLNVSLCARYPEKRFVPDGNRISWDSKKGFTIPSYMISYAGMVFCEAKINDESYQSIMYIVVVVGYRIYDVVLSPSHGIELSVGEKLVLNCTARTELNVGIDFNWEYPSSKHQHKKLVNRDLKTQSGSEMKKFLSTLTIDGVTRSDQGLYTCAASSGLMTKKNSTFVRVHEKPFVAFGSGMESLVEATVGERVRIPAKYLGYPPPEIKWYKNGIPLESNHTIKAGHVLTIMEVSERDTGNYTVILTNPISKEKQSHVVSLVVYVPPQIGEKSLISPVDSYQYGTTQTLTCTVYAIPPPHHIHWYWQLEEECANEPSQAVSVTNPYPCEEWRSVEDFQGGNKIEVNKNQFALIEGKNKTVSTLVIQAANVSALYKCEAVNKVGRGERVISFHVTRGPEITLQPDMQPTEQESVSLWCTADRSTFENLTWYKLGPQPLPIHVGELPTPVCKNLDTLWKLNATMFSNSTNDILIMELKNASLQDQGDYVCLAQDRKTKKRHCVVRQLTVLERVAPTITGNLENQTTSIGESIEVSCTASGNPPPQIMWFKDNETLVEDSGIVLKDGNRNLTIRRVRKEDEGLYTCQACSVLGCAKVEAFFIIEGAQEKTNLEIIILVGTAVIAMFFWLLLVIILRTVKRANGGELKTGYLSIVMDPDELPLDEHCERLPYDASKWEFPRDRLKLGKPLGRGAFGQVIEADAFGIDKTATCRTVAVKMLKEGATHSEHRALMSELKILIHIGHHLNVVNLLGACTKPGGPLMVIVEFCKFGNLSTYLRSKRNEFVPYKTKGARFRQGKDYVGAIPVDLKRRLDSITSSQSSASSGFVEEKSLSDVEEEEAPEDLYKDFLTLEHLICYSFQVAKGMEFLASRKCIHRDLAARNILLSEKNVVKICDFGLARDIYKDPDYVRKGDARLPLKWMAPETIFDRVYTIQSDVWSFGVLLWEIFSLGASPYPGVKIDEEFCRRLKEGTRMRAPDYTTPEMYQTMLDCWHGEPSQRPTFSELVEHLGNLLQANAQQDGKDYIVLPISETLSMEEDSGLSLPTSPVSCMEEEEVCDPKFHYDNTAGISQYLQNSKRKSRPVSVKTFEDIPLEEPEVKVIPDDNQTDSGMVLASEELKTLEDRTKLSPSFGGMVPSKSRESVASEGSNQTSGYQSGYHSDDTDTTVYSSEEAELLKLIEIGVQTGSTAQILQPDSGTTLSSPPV

| Compound | IC50 (EGFR) | IC50 [1] | melting point | IC50 (A549 lung cancer cells) | IC50 (H441 lung cancer cells) | IC50 (VEGFR-2) | inhibition at 10 µM [2] | inhibition at 10 µM [3] | inhibition at 10 µM [4] | inhibition at 10 µM (HepG2 liver cancer cells) | inhibition at 10 µM (K562 leukaemia cells) | inhibition at 10 µM (KG-1a leukaemia cells) | inhibition at 10 µM [5] | IC50 [6] | inhibition at 10 µM (A549 lung cancer cells) | inhibition at 10 µM (H441 lung cancer cells) | cell cycle arrest phase (A549 cells) |
| --- | --- | --- | --- | --- | --- | --- | --- | --- | --- | --- | --- | --- | --- | --- | --- | --- | --- |
| CN(C)c1ccc(C2CC(c3c(O)c4ccccc4oc3=O)=NN2c2nc(-c3ccccc3)c(/N=N/c3ccc(Cl)cc3)s2)cc1 (centres unmarked) [Compound IV] |  |  |  |  |  | 0.034 µM |  |  |  |  |  |  |  |  |  |  |  |
| COc1cc2ncnc(Nc3ccc(F)c(Cl)c3)c2cc1OCCCN1CCOCC1 [Gefitinib, reference compound] |  |  |  |  |  |  |  |  |  |  |  |  |  |  |  |  | significantly arrested the cell cycle at G1 phase |
| COc1ccc(C2CC(c3ccc(Cl)cc3Cl)=NN2c2nc(-c3ccc(Cl)cc3)cs2)cc1 (centres unmarked) [Compound 7b, 4-(4-Chlorophenyl)-2-(3-(2,4-dichlorophenyl)-5-(4-methoxyphenyl)-4,5-dihydro-1H-pyrazol-1-yl)thiazole] | 114.2 ± 0.4 nM | 195 ± 4.6 nM | 140 to 141 °C | 12 ± 0.4 µM | 26.5 ± 1.1 µM |  | 5.2 ± 1% | 19.6 ± 0.3% | 18.8 ± 1.9% | 34.4 ± 1.4% | 21.5 ± 3% | 21.7 ± 4.6% | 25.9 ± 1.2% | 60.6 ± 3.1 µM | 45.2 ± 2.9% | 35.2 ± 1.2% |  |
| COc1ccc(C2CC(c3ccc(Cl)cc3Cl)=NN2c2nc(-c3ccccc3)cs2)cc1 (centres unmarked) [Compound 7a, 2-(3-(2,4-Dichlorophenyl)-5-(4-methoxyphenyl)-4,5-dihydro-1H-pyrazol-1-yl)-4-phenylthiazole] | 145 ± 2 nM | 125 ± 1.4 nM | 72 to 75 °C | 22.5 ± 1.2 µM | 38.4 ± 2.3 µM |  | 26.4 ± 3.6% | 27.3 ± 1% | 0.5 ± 0.1% | 0.5% | 14.2 ± 2.1% | 18.4 ± 1.3% | 0.07% | 88.2 ± 4.2 µM | 34.9 ± 4.3% | 36.1 ± 2.1% |  |
| COc1ccc(C2CC(c3ccc(Cl)cc3Cl)=NN2c2nc(-c3ccc(Cl)cc3)cs2)cc1OC (centres unmarked) [Compound 7d, 4-(4-Chlorophenyl)-2-(3-(2,4-dichlorophenyl)-5-(3,4-dimethoxyphenyl)-4,5-dihydro-1H-pyrazol-1-yl)thiazole] | 132.9 ± 1.2 nM | 186 ± 2.3 nM | 158 to 159 °C | 20.2 ± 2 µM | 29.1 ± 3.5 µM |  | 18 ± 2.7% | 17.3 ± 0.6% | 0.7% | 5.1 ± 1% | 22 ± 1.6% | 25.1 ± 2% | 2.2 ± 0.6% | 40.1 ± 2.7 µM | 31.2 ± 1.4% | 34.8 ± 2.4% |  |

The next lines start with results.

| IC50 (EGFR) | IC50 [1] | melting point | IC50 (A549 lung cancer cells) | IC50 (H441 lung cancer cells) | Compound | IC50 (VEGFR-2) | inhibition at 10 µM [2] | inhibition at 10 µM [3] | inhibition at 10 µM [4] | inhibition at 10 µM (HepG2 liver cancer cells) | inhibition at 10 µM (K562 leukaemia cells) | inhibition at 10 µM (KG-1a leukaemia cells) | inhibition at 10 µM [5] | IC50 [6] | inhibition at 10 µM (A549 lung cancer cells) | inhibition at 10 µM (H441 lung cancer cells) | cell cycle arrest phase (A549 cells) |
| --- | --- | --- | --- | --- | --- | --- | --- | --- | --- | --- | --- | --- | --- | --- | --- | --- | --- |
| 179 nM | 214 ± 4 nM | 170 to 171 °C | 59.1 ± 3.2 µM | 24.2 ± 1.8 µM | COc1ccc(C2CC(c3ccc(Cl)cc3Cl)=NN2c2nc(C)c(N=Nc3ccc(C)cc3)s2)cc1 (centres unmarked) [Compound 13b, 2-(3-(2,4-Dichlorophenyl)-5-(4-methoxyphenyl)-4,5-dihydro-1H-pyrazol-1-yl)-4-methyl-5-(p-tolyldiazenyl)thiazole] |  | 5.1 ± 0.3% | 8.3 ± 0.9% | 0.8 ± 0.2% | 0.08% | 11 ± 0.6% | 7.1 ± 0.2% | 3.4 ± 0.5% | > 100 µM | 16.2 ± 1.3% | 23.3 ± 2.4% |  |
| 107 ± 1.2 nM | 113 ± 1.8 nM | 190 to 191 °C | 13.7 ± 2.2 µM | 24.8 ± 1.4 µM | COc1ccc(C2CC(c3ccc(Cl)cc3Cl)=NN2c2nc(C)c(N=Nc3ccc(Cl)cc3)s2)cc1OC (centres unmarked) [Compound 13f, 5-((4-Chlorophenyl)diazenyl)-2-(3-(2,4-dichlorophenyl)-5-(3,4-dimethoxyphenyl)-4,5-dihydro-1H-pyrazol-1-yl)-4-methylthiazole] |  | 24.6 ± 1.3% | 6.3 ± 1% | 0.2% | 0.9 ± 0.3% | 31.5 ± 1% | 20 ± 2.8% | 0.8 ± 0.2% | > 100 µM | 47.5 ± 3.1% | 17.3 ± 0.6% |  |
| 134 ± 1.5 nM | 173 ± 2.6 nM | 170 to 171 °C | 46.3 ± 2.5 µM | 33.5 ± 3.9 µM | COc1ccc(C2CC(c3ccc(Cl)cc3Cl)=NN2c2nc(C)c(N=Nc3ccc(Cl)cc3)s2)cc1 (centres unmarked) [Compound 13c, 5-((4-Chlorophenyl)diazenyl)-2-(3-(2,4-dichlorophenyl)-5-(4-methoxyphenyl)-4,5-dihydro-1H-pyrazol-1-yl)-4-methylthiazole] |  | 8.7 ± 1.9% | 1.1 ± 0.1% | 8.7 ± 0.6% | 14.2 ± 1% | 5.2 ± 0.9% | 12.4 ± 1.6% | 10.4 ± 2.9% | 91.4 ± 8.9 µM | 14.8 ± 1% | 19.9 ± 1.7% |  |

Source: PMC9415638, “Discovery of novel thiazolyl-pyrazolines as dual EGFR and VEGFR-2 inhibitors endowed with in vitro antitumor activity towards non-small lung cancer” (Journal of Enzyme Inhibition and Medicinal Chemistry, 2022)
